The values below come from patent US6075057A, “Inhibition of carbohydrates metabolism by quinone compounds” (priority 1997, dated 2000).

A word on the IC50: it is the concentration at which inhibition is half-maximal. The low end stands for higher potency, the high end for lower potency. The term Ki denotes a dissociation constant, usually derived from enzyme kinetics or from competition with a known ligand.

Test [1] addresses T1, β-xylosidase (EC 3.2.1.37) (Aspergillus niger, UniProt O00089).
T1 construct: purchased Sigma; host or cells: Aspergillus niger
Nature of the test: Initial screening assay for enzyme inhibition, β-xylosidase. The class given is biochemical. To be noted: 2% MeOH, read-out: % Enzyme activity relative to control. The procedure: (§1) Optically pure enantiomers of avarol were synthetically prepared. A survey of potential inhibitory activity by avarol against twelve glycosidases was performed according to general procedures^15 (see experimental section). The enzymes tested and their biological sources are listed in Table 1 along with any pertinent references found for a given enzyme. In order to determine a working range for enzyme and substrate concentrations in which the rate of product formation was linear and steady-state kinetics were applicable, initial rate studies with varying substrate concentrations were performed in the absence of inhibitor. The Michaelis constants (Km 's) and Vmax values for these enzymes were determined from these plots using standard graphical analysis procedures as described in ref. 17 and are summarized in Table 2.
(§2) Enzymatic Assays. Piperazine-N,N'-bix-(2-ethanesulfonic acid)(PIPES) buffer, enzymes, and substrates were purchased from Sigma and used as received. Buffer solutions and enzymes (desiccated) were stored at 4° C. p-Nitrophenyl glycoside substrates were stored desiccated at -20° C. Enzyme inhibition assays and initial rate studies were carried out with the appropriate p-nitrophenyl glycoside substrates following the general procedure of Kajimoto et al., J. Am. Chem. Soc. 113:6187 (1991) with the exception that amyloglucosidase (EC 3.2,1.3, Asp. niger) was assayed following the method of Saul et al., Arch. Biochem. Biophys. 221:593 (1983). Assays were performed in a Perkin-Elmer Lambda Array 3840 Spectrophotometer using the built-in drive method (resolution=0.25, average=8) in a quartz cuvette (1 cm pathlength). Background absorption spectra were acquired using millipore filtered water as medium. Steady-state kinetics were maintained by adjusting the amount of enzyme used in each assay so that less than 10% of the substrate was converted to product for the duration of the reaction. Reactions were monitored at 400 nm (the absorbance of the p-nitrophenol product, ε=3204.5 M^-1 cm^-1) for a given amount of time and the initial rates were calculated and expressed as μmols p-nitrophenol formed per unit enzyme per second. Absportion readings for control reactions were corrected for the small baseline absorbance at time zero. Small discrepancies between time zero absorbance readings in a given inhibition assay and a time zero reading in a control assay were used to correct the overall absorbance change calculated in the inhibition assay. […]
(§3) Typical assay: A 1.5-mL quartz cuvette was charged with 940 μL of PIPES-NaOAc buffer solution (pH 6.56), 20 μL of inhibitor solution, and 20 μL of enzyme solution. […] The reaction was monitored at 400 nm for 1 min and the absorbance change was used to calculate the initial hydrolysis rate. […]

Test [2] has as its target T2, α-glucosidase (EC 3.2.1.20, type IV) (Saccharomyces cerevisiae, UniProt P53341).
T2 construct: purchased Sigma; host or cells: brewer's yeast
The test is described as follows: Initial screening assay for enzyme inhibition, α-glucosidase. Type of test: biochemical, brewer's yeast. The note with it: for remaining activity at 10 µM: α-glucosidase, 10 μM inhibitor, 2% MeOH, read-out: % Enzyme activity relative to control. The procedure: as §1
(§4) Initial screening assays with the enantiomeric avarols indicated significant activity by these compounds against only two of the twelve enzymes studies. […] This can occur when the two species compete for the same site or nearby sites on the enzyme. The equilibria that describe competitive inhibition are shown below. [drawing 3]
(§5) Enzymatic Assays. Piperazine-N,N'-bix-(2-ethanesulfonic acid)(PIPES) buffer, enzymes, and substrates were purchased from Sigma and used as received. Buffer solutions and enzymes (desiccated) were stored at 4° C. p-Nitrophenyl glycoside substrates were stored desiccated at -20° C. Enzyme inhibition assays and initial rate studies were carried out with the appropriate p-nitrophenyl glycoside substrates following the general procedure of Kajimoto et al., J. Am. Chem. Soc. 113:6187 (1991) with the exception that amyloglucosidase (EC 3.2,1.3, Asp. niger) was assayed following the method of Saul et al., Arch. Biochem. Biophys. 221:593 (1983). Assays were performed in a Perkin-Elmer Lambda Array 3840 Spectrophotometer using the built-in drive method (resolution=0.25, average=8) in a quartz cuvette (1 cm pathlength). Background absorption spectra were acquired using millipore filtered water as medium. Steady-state kinetics were maintained by adjusting the amount of enzyme used in each assay so that less than 10% of the substrate was converted to product for the duration of the reaction. Reactions were monitored at 400 nm (the absorbance of the p-nitrophenol product, ε=3204.5 M^-1 cm^-1) for a given amount of time and the initial rates were calculated and expressed as μmols p-nitrophenol formed per unit enzyme per second. Absportion readings for control reactions were corrected for the small baseline absorbance at time zero. Small discrepancies between time zero absorbance readings in a given inhibition assay and a time zero reading in a control assay were used to correct the overall absorbance change calculated in the inhibition assay. Inhibitors were dissolved in uv-grade absolute methanol.
(§6) Typical assay: A 1.5-mL quartz cuvette was charged with 940 μL of PIPES-NaOAc buffer solution (pH 6.56), 20 μL of inhibitor solution, and 20 μL of enzyme solution. The result was mixed well and then equilibrated at 37° C. for two minutes. 20 μL of the appropriate p-nitrophenyl glycoside solution was then added to initiate the reaction with rapid mixing. The reaction was monitored at 400 nm for 1 min and the absorbance change was used to calculate the initial hydrolysis rate. Lineweaver-Burk plots were constructed by repeating this procedure with varying substrate and inhibitor concentrations.

In test [3] the test system is β-mannosidase (EC 3.2.1.25). The test is described as follows: Initial screening assay for enzyme inhibition, β-mannosidase. The class given is biochemical, snail. The note with it: 2% MeOH. The procedure: as §1, §2, §3
For test [4], the system named is amyloglucosidase (EC 3.2.1.3). Nature of the test: Initial screening assay for enzyme inhibition, amyloglucosidase. The class given is biochemical, Aspergillus niger. To be noted: amyloglucosidase, 2% MeOH. The procedure:
as §1, §5, §6

Test [5] deals with T3, α-D-glucosidase (brewer's yeast) (Saccharomyces cerevisiae, UniProt P53341).
T3 construct: purchased Sigma; host or cells: brewer's yeast
Nature of the test: IC50 determination against α-D-glucosidase. The class given is biochemical. The procedure:
as §2, with “Background absorption spectra were acquired using millipore filtered water as medium. Steady-state kinetics were maintained by adjusting the amount of enzyme used in each assay so that less than 10% of the substrate was converted to product for the duration of the reaction.” left out

The subject of test [6] is α-galactosidase (EC 3.2.1.22). The test is described as follows: Initial screening assay for enzyme inhibition, α-galactosidase (E. coli). Type of test: biochemical, Escherichia coli. To be noted: 2% MeOH. The procedure: as §1, §2, §3
In test [7] the target is T4, α-glucosidase (brewer's yeast) (Saccharomyces cerevisiae, UniProt P53341).
T4 construct: purchased Sigma; host or cells: brewer's yeast
The test is described as follows: Lineweaver-Burk analysis of inhibition of α-glucosidase. Type of test: biochemical. To be noted: replot of Lineweaver-Burk slopes, linear extrapolation; pH 6.56, 37° C.
Excerpt: as §4
The equilibria describing this phenomenon are shown below. [drawing 4] The α factor represents the amount by which KS changes when I binds to the enzyme. The overall equilibrium constant for the formation of ESI remains the same regardless of which path was taken in its formation. Since the ES and ESI complexes are equally efficient in producing product, Vmax remains unchanged and Km is increased in the presence of inhibitor.
(§7) Enzymatic Assays. […] Reactions were monitored at 400 nm (the absorbance of the p-nitrophenol product, ε=3204.5 M^-1 cm^-1) for a given amount of time and the initial rates were calculated and expressed as μmols p-nitrophenol formed per unit enzyme per second. Absportion readings for control reactions were corrected for the small baseline absorbance at time zero. Small discrepancies between time zero absorbance readings in a given inhibition assay and a time zero reading in a control assay were used to correct the overall absorbance change calculated in the inhibition assay. […]

In test [8] the target is T5, α-L-fucosidase (EC 3.2.1.51) (Bos taurus, UniProt Q2KIM0).
T5 construct: purchased Sigma; host or cells: bovine kidney
T5 sequence (Q2KIM0 23-468): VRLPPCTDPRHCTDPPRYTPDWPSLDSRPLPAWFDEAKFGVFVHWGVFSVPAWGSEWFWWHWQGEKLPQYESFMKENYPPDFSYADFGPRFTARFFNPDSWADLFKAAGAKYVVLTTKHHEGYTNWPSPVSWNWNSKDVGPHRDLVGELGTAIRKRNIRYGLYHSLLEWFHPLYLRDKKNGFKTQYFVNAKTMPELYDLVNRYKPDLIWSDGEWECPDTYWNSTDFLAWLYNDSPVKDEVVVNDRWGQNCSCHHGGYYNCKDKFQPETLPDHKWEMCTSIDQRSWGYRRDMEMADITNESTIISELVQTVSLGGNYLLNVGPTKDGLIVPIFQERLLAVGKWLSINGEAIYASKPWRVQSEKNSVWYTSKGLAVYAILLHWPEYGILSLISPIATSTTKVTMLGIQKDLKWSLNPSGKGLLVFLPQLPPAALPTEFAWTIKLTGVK
Nature of the test: Initial screening assay for enzyme inhibition, α-L-fucosidase. Type of test: biochemical, bovine kidney. The note with it: α-L-fucosidase, 2% MeOH, read-out: % Enzyme activity relative to control. The procedure: as §1, §2, §3

Test [9] has as its target T6, β-galactosidase (EC 3.2.1.23) (Aspergillus niger, UniProt P29853).
T6 construct: purchased Sigma; host or cells: Aspergillus niger
The test is described as follows: Initial screening assay for enzyme inhibition, β-galactosidase (Asp. niger). The class given is biochemical. The note with it: 2% MeOH, read-out: % Enzyme activity relative to control. The procedure: as §1, §2, §3

Test [10] concerns the target T7, α-D-mannosidase (jack bean) (Canavalia ensiformis, UniProt C0HJB3).
T7 construct: purchased Sigma; host or cells: jack beans
Nature of the test: IC50 determination against α-D-mannosidase. The note with it: hot substrate solutions. The class given is biochemical. The procedure:
Enzymatic assays with a α-D-mannosidase (jack bean) were complicated by the higher Km of the enzyme (2.04 mM) requiring higher substrate concentrations and the relative insolubility of the .rho.-nitrophenyl mannoside substrate in aqueous media. The assay had to be performed using hot solutions of the substrate which were pipetted with some expected difficulty. Nonetheless, IC50 values of >40 μM and ~10 μM were obtained for the (+)- and (-)-enantiomers of avarol respectively.
as §7, with “Assays. Piperazine-N,N'-bix-(2-ethanesulfonic acid)(PIPES) buffer, enzymes, and substrates were purchased from Sigma and used as received. Buffer solutions and enzymes (desiccated) were stored at 4° C. p-Nitrophenyl glycoside substrates were stored desiccated at -20° C.” for “Assays.”

T2 sequence (P53341 whole entry): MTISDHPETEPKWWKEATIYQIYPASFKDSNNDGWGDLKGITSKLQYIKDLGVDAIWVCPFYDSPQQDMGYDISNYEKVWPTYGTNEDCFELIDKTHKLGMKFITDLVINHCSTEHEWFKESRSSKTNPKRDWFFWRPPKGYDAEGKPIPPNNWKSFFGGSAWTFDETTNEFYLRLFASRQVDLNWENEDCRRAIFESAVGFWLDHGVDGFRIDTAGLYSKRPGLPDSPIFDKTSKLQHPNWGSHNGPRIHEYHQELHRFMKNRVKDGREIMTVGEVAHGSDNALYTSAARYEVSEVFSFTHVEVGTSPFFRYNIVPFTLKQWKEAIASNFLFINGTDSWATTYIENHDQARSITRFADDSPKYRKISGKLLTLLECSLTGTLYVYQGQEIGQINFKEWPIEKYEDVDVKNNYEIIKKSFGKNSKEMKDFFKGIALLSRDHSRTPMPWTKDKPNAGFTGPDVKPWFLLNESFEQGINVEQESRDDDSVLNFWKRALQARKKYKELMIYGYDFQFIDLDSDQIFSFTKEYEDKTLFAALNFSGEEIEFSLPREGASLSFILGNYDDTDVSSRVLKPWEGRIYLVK
T6 sequence (P29853 20-1006): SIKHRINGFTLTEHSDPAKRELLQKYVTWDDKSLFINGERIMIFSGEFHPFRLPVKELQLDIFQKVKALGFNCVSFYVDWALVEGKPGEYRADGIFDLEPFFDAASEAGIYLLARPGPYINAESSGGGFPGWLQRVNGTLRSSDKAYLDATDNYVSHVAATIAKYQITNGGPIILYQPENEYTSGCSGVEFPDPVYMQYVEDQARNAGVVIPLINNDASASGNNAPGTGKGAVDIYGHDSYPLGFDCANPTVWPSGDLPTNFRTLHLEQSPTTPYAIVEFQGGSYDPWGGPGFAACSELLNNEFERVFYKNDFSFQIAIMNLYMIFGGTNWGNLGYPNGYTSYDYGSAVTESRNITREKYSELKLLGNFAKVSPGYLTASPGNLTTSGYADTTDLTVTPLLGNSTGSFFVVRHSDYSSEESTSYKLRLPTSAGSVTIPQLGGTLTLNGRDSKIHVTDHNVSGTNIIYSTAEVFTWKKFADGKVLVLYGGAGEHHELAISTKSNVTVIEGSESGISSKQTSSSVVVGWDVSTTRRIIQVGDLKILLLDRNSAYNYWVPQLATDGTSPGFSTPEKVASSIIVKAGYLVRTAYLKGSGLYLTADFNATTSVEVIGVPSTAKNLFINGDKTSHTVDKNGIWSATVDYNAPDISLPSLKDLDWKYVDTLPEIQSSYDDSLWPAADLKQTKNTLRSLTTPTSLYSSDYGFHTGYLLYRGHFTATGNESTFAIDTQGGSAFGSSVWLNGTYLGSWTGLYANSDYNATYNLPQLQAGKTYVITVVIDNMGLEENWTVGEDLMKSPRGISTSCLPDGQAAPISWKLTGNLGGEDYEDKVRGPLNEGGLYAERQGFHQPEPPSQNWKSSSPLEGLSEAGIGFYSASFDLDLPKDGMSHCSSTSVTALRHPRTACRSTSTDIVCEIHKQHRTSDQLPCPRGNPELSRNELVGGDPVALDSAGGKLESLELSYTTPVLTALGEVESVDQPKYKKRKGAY
T4 sequence (P53341 whole entry): as the sequence (P53341 whole entry) above
T3 sequence (P53341 whole entry): as above
T1 sequence (O00089 27-804): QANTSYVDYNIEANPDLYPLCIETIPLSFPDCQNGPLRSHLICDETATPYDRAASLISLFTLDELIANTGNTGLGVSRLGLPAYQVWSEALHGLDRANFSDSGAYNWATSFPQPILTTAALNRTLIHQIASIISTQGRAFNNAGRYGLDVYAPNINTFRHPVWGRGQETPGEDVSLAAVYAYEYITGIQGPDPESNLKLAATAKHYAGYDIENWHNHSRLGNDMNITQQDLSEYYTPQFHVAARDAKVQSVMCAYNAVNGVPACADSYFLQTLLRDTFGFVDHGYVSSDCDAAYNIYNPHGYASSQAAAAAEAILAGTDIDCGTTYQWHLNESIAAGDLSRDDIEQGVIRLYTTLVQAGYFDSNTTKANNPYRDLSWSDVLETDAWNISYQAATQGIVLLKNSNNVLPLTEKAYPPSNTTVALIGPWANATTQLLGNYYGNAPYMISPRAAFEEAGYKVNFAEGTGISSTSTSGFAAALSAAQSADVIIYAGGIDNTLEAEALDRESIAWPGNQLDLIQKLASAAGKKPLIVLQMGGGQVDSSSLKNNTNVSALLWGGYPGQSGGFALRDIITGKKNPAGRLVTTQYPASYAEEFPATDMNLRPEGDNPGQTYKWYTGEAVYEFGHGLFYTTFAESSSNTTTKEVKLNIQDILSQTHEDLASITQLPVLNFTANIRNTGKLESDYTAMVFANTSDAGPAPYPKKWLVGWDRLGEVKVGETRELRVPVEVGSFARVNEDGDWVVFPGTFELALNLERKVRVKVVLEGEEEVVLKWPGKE
T7 sequence (C0HJB3 1-562 limits assumed): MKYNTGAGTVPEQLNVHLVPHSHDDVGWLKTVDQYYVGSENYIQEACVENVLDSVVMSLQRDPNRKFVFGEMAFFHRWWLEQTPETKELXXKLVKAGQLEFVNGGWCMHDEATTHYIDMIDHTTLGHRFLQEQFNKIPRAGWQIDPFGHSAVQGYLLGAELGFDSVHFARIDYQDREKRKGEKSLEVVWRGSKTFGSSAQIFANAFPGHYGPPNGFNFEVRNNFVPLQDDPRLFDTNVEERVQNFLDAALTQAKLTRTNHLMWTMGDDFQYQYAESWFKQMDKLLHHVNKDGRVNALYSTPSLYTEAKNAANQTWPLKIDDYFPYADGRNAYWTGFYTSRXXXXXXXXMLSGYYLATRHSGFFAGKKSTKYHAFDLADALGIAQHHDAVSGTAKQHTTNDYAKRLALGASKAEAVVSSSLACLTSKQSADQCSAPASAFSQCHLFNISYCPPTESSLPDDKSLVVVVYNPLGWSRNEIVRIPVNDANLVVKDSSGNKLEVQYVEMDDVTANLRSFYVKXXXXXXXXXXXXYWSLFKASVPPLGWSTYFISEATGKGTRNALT
T7 sequence (C0HJB3 563-981 limits assumed): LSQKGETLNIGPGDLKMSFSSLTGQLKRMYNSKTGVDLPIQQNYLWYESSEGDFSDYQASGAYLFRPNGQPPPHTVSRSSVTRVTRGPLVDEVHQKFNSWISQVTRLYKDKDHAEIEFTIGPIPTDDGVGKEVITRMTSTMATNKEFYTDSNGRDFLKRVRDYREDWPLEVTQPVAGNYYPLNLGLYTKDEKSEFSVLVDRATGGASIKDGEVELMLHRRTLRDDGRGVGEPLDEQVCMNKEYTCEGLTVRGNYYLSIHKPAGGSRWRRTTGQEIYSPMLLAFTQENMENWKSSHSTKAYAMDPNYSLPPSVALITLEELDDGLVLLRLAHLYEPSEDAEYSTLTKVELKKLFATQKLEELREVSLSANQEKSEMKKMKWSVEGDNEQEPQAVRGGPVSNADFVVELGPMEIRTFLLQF

As for `CC1=CCC[C@H]2[C@](C)(Cc3cc(O)ccc3O)[C@@H](C)CC[C@]12C` [(+)-avarol, (+)-Avarol], the remaining activity at 40 µM worked out at 100% in [1] (40 μM inhibitor), 101% in [8] (40 μM inhibitor) and 104% in test [9] (40 μM inhibitor). The remaining activity at 10 µM in [2] is 63%. The figures for the “% Enzyme activity relative to control” value in test [3] (40 μM inhibitor), in test [4] (40 μM inhibitor) and in test [6] (40 μM inhibitor) were 106%, 113% and 90%, respectively. Also, the IC50 in [5] was > 20 µM; in test [10], > 40 µM. Besides, in [7], the Ki was 25 µM.
As for `CC1=CCC[C@@H]2[C@@](C)(Cc3cc(O)ccc3O)[C@H](C)CC[C@@]12C` [(-)-avarol], the remaining activity at 20 µM in [1] (20 μM inhibitor) stood at 91%; in test [8] (20 μM inhibitor), 108%; in test [9] (20 μM inhibitor) it was 111%. In addition, the “activity versus naturally-occurring enantiomer, α-glucosidase (in words)” value in test [2] (versus (+)-avarol) is given as “significantly more active than the naturally-occurring enantiomer”. Moreover, the remaining activity at 10 µM in [2] was 43%. The figures for the “% Enzyme activity relative to control” value in test [3] (20 μM inhibitor), in [4] (20 μM inhibitor) and in test [6] (20 μM inhibitor) were 101%, 94% and 94%, respectively. Further, the half-inhibitory concentration (IC50) was 7.6 µM in [5] and ~10 µM in test [10]. For the same compound, in test [7], the inhibitory constant (Ki) is 9.5 µM.
